# Reference: patent US11076595B2, “1-(n,n-disubstituted carbamoyl) 4-(substituted sulfonyl)triazolin-5-one derivative, 4-(n,n-disubstituted carbamoyl) 1-(substituted sulfonyl)triazolin-5-one derivative, and herbicide containing said derivative as active ingredient” (HOKKO CHEMICAL INDUSTRY CO., LTD., priority 2017, dated 2021)
# Key:
# Type in all cases: in vivo
# Monochoria vaginalis [1] = assay: Test Example 1: herbicidal effect test by soil treatment in paddy field; conditions: 120 g/10a, paddy soil treatment just after sowing, 14 days after treatment
# How it was run: (§1)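 Weed suppression (%) was calculated at 14 days from mean plant dry weight relative to untreated pots, with duplicate pots per rate. The compound went into the flood water as a diluted emulsifiable concentrate (120 g a.i./10 are) immediately after sowing seeds 0–1 cm deep. Pots held ~3 cm water in a glasshouse.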
# Lindernia pyxidaria [2] = assay: as above; conditions: 120 g/10a, paddy soil treatment just after sowing, 14 days after treatment
# How it was run: as §1
# Echinochloa crus-galli [3] = assay: as above; conditions: 120 g/10a, paddy soil treatment just after sowing, 14 days after treatment
# How it was run: as §1
# Scirpus juncoides [4] = assay: as above; conditions: 120 g/10a, paddy soil treatment just after sowing, 14 days after treatment
# How it was run: as §1
# Chenopodium album [5] = assay: Test Example 3: herbicidal effect test by soil treatment in upland field; conditions: upland field soil treatment 1 day after sowing; 120 g/10a; evaluated 14 days after treatment
# Method: (§2) This test was performed with two replications per one formulation concentration plot, and 14 days after the formulation treatments, the weed suppression rate (%) was determined according to the following equation (Math. 1). Weed suppression rate (%)=(1−an average dry weight (g) of plants in treated plots/an average dry weight (g) of plants in untreated plots)×100 [Math. 1]
# (§3) A pot having a size of 36 cm^2 was filled with field soil (alluvial soil) and after uniformly mixing the soil of the surface layer of 1 cm with 20 grains of each weed seed of crabgrass, Echinochloa crus-galli, Chenopodium album and Amaranthus viridis, the surface layer was pressed lightly. One day after the sowing, an emulsifiable concentrate prepared according to Formulation Example 5 by using the compound shown in Table 7 below was diluted with water, and the water-diluted formulation was sprayed on the soil surface at a ratio of 100 liter per 10 are. The application rate of the active ingredient, by conversion, corresponded to 120 g per 10 are. Fourteen days after the formulation treatment, the herbicidal effect was evaluated by the same criteria as in Test Example 1.
# Echinochloa crus-galli [6] = assay: as above; conditions: upland field soil treatment 1 day after sowing; 120 g/10a; evaluated 14 days after treatment
# Method: as §2, §3
# crabgrass [7] = assay: as above; conditions: upland field soil treatment 1 day after sowing; 120 g/10a; evaluated 14 days after treatment
# Method: as §2, §3
# Amaranthus viridis [8] = assay: as above; conditions: upland field soil treatment 1 day after sowing; 120 g/10a; evaluated 14 days after treatment
# Method: as §2, §3
# Monochoria vaginalis [9] = assay: Test Example 2: herbicidal effect test by treatment during growing period in paddy field; conditions: treatment 7 days after sowing, 120 g/10a, evaluated 14 days after treatment
# How it was run: (§4)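 Paddy soil in Wagner pots, flooded to ~3 cm; 30 seeds per species sown 0–1 cm deep, greenhouse-grown. Emulsifiable concentrate diluted in water and dripped into flood water 7 days after sowing at 120 g active ingredient per 10 are. Dry-weight suppression vs untreated assessed 14 days post-treatment, two replicates.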
# Lindernia pyxidaria [10] = assay: as above; conditions: treatment 7 days after sowing, 120 g/10a, evaluated 14 days after treatment
# How it was run: as §4
# Echinochloa crus-galli [11] = assay: as above; conditions: treatment 7 days after sowing, 120 g/10a, evaluated 14 days after treatment
# How it was run: as §4
# Scirpus juncoides [12] = assay: as above; conditions: treatment 7 days after sowing, 120 g/10a, evaluated 14 days after treatment
# How it was run: as §4
# Chenopodium album [13] = assay: Test Example 4: herbicidal effect test by foliage treatment in upland field; conditions: upland field foliage treatment 7 days after sowing; 120 g/10a; evaluated 14 days after treatment
# Method: as §2
# as §3, with “Seven days” for “One day”, “8” for “7”
# Echinochloa crus-galli [14] = assay: as above; conditions: upland field foliage treatment 7 days after sowing; 120 g/10a; evaluated 14 days after treatment
# Method: as §2
# as §3, with “Seven days” for “One day”, “8” for “7”
# crabgrass [15] = assay: as above; conditions: upland field foliage treatment 7 days after sowing; 120 g/10a; evaluated 14 days after treatment
# Method: as §2
# as §3, with “Seven days” for “One day”, “8” for “7”
# Amaranthus viridis [16] = assay: as above; conditions: upland field foliage treatment 7 days after sowing; 120 g/10a; evaluated 14 days after treatment
# Method: as §2
# as §3, with “Seven days” for “One day”, “8” for “7”
smiles,measurement,setting,value
CC(C)N(C(=O)n1ncn(S(=O)(=O)C(C)C)c1=O)c1cccnc1F [Compound 1-90],"weed suppression rate, Monochoria vaginalis",Monochoria vaginalis [1],80%
same,"weed suppression rate, Lindemia pyxidaria",Lindernia pyxidaria [2],90%
same,"weed suppression rate, Echinochloa crus-galli",Echinochloa crus-galli [3],100%
same,"weed suppression rate, Scirpus juncoides",Scirpus juncoides [4],90%
same,"herbicidal effect (weed suppression rate), Chenopodium album",Chenopodium album [5],90%
same,"herbicidal effect (weed suppression rate), Echinochloa crus-galli",Echinochloa crus-galli [6],100%
same,"herbicidal effect (weed suppression rate), Crabgrass",crabgrass [7],100%
same,"herbicidal effect (weed suppression rate), Amaranthus viridis",Amaranthus viridis [8],90%
same,"weed suppression rate, Monochoria vaginalis",Monochoria vaginalis [9],90%
same,"weed suppression rate, Lindemia pyxidaria",Lindernia pyxidaria [10],90%
same,"weed suppression rate, Echinochloa crus-galli",Echinochloa crus-galli [11],100%
same,"weed suppression rate, Scirpus juncoides",Scirpus juncoides [12],90%
same,"herbicidal effect (weed suppression rate), Chenopodium album",Chenopodium album [13],70%
same,"herbicidal effect (weed suppression rate), Echinochloa crus-galli",Echinochloa crus-galli [14],90%
same,"herbicidal effect (weed suppression rate), Crabgrass",crabgrass [15],90%
same,"herbicidal effect (weed suppression rate), Amaranthus viridis",Amaranthus viridis [16],50%
CC(C)N(C(=O)n1ncn(S(=O)(=O)C2CC2)c1=O)c1ccc(Cl)nc1Cl [Compound 1-249],"weed suppression rate, Monochoria vaginalis",Monochoria vaginalis [1],90%
same,"weed suppression rate, Lindemia pyxidaria",Lindernia pyxidaria [2],90%
same,"weed suppression rate, Echinochloa crus-galli",Echinochloa crus-galli [3],100%
same,"weed suppression rate, Scirpus juncoides",Scirpus juncoides [4],90%
same,"herbicidal effect (weed suppression rate), Chenopodium album",Chenopodium album [5],80%
same,"herbicidal effect (weed suppression rate), Echinochloa crus-galli",Echinochloa crus-galli [6],80%
same,"herbicidal effect (weed suppression rate), Crabgrass",crabgrass [7],90%
same,"herbicidal effect (weed suppression rate), Amaranthus viridis",Amaranthus viridis [8],90%
same,"weed suppression rate, Monochoria vaginalis",Monochoria vaginalis [9],90%
same,"weed suppression rate, Lindemia pyxidaria",Lindernia pyxidaria [10],90%
same,"weed suppression rate, Echinochloa crus-galli",Echinochloa crus-galli [11],100%
same,"weed suppression rate, Scirpus juncoides",Scirpus juncoides [12],90%
same,"herbicidal effect (weed suppression rate), Chenopodium album",Chenopodium album [13],80%
same,"herbicidal effect (weed suppression rate), Echinochloa crus-galli",Echinochloa crus-galli [14],80%
same,"herbicidal effect (weed suppression rate), Crabgrass",crabgrass [15],90%
same,"herbicidal effect (weed suppression rate), Amaranthus viridis",Amaranthus viridis [16],90%
CC(C)N(C(=O)n1ncn(S(=O)(=O)C2CC2)c1=O)c1ccccc1F [Compound 1-169],"weed suppression rate, Monochoria vaginalis",Monochoria vaginalis [1],90%
same,"weed suppression rate, Lindemia pyxidaria",Lindernia pyxidaria [2],90%
same,"weed suppression rate, Echinochloa crus-galli",Echinochloa crus-galli [3],100%
same,"weed suppression rate, Scirpus juncoides",Scirpus juncoides [4],90%
same,"herbicidal effect (weed suppression rate), Chenopodium album",Chenopodium album [5],80%
same,"herbicidal effect (weed suppression rate), Echinochloa crus-galli",Echinochloa crus-galli [6],80%
same,"herbicidal effect (weed suppression rate), Crabgrass",crabgrass [7],90%
same,"herbicidal effect (weed suppression rate), Amaranthus viridis",Amaranthus viridis [8],90%
same,"weed suppression rate, Monochoria vaginalis",Monochoria vaginalis [9],90%
same,"weed suppression rate, Lindemia pyxidaria",Lindernia pyxidaria [10],80%
same,"weed suppression rate, Echinochloa crus-galli",Echinochloa crus-galli [11],100%
same,"weed suppression rate, Scirpus juncoides",Scirpus juncoides [12],80%
same,"herbicidal effect (weed suppression rate), Chenopodium album",Chenopodium album [13],80%
same,"herbicidal effect (weed suppression rate), Echinochloa crus-galli",Echinochloa crus-galli [14],80%
same,"herbicidal effect (weed suppression rate), Crabgrass",crabgrass [15],90%
same,"herbicidal effect (weed suppression rate), Amaranthus viridis",Amaranthus viridis [16],90%
CC(C)N(C(=O)n1ncn(S(=O)(=O)C(C)C)c1=O)c1ccc(F)cc1F [Compound 1-65],"weed suppression rate, Monochoria vaginalis",Monochoria vaginalis [1],100%
same,"weed suppression rate, Lindemia pyxidaria",Lindernia pyxidaria [2],100%
same,"weed suppression rate, Echinochloa crus-galli",Echinochloa crus-galli [3],100%
same,"weed suppression rate, Scirpus juncoides",Scirpus juncoides [4],100%
same,"herbicidal effect (weed suppression rate), Chenopodium album",Chenopodium album [5],90%
same,"herbicidal effect (weed suppression rate), Echinochloa crus-galli",Echinochloa crus-galli [6],100%
same,"herbicidal effect (weed suppression rate), Crabgrass",crabgrass [7],100%
same,"herbicidal effect (weed suppression rate), Amaranthus viridis",Amaranthus viridis [8],80%
same,"weed suppression rate, Monochoria vaginalis",Monochoria vaginalis [9],90%
same,"weed suppression rate, Lindemia pyxidaria",Lindernia pyxidaria [10],90%
same,"weed suppression rate, Echinochloa crus-galli",Echinochloa crus-galli [11],100%
same,"weed suppression rate, Scirpus juncoides",Scirpus juncoides [12],90%
same,"herbicidal effect (weed suppression rate), Chenopodium album",Chenopodium album [13],80%
same,"herbicidal effect (weed suppression rate), Echinochloa crus-galli",Echinochloa crus-galli [14],80%
same,"herbicidal effect (weed suppression rate), Crabgrass",crabgrass [15],90%
same,"herbicidal effect (weed suppression rate), Amaranthus viridis",Amaranthus viridis [16],90%
CC(C)N(C(=O)n1ncn(S(=O)(=O)N(C)C)c1=O)c1ccc(F)cc1 [Compound 1-1095],"weed suppression rate, Monochoria vaginalis",Monochoria vaginalis [1],80%
same,"weed suppression rate, Lindemia pyxidaria",Lindernia pyxidaria [2],80%
same,"weed suppression rate, Echinochloa crus-galli",Echinochloa crus-galli [3],90%
same,"weed suppression rate, Scirpus juncoides",Scirpus juncoides [4],90%
same,"herbicidal effect (weed suppression rate), Chenopodium album",Chenopodium album [5],80%
same,"herbicidal effect (weed suppression rate), Echinochloa crus-galli",Echinochloa crus-galli [6],80%
same,"herbicidal effect (weed suppression rate), Crabgrass",crabgrass [7],90%
same,"herbicidal effect (weed suppression rate), Amaranthus viridis",Amaranthus viridis [8],90%
same,"weed suppression rate, Monochoria vaginalis",Monochoria vaginalis [9],80%
same,"weed suppression rate, Lindemia pyxidaria",Lindernia pyxidaria [10],80%
same,"weed suppression rate, Echinochloa crus-galli",Echinochloa crus-galli [11],90%
same,"weed suppression rate, Scirpus juncoides",Scirpus juncoides [12],90%
same,"herbicidal effect (weed suppression rate), Chenopodium album",Chenopodium album [13],80%
same,"herbicidal effect (weed suppression rate), Echinochloa crus-galli",Echinochloa crus-galli [14],80%
same,"herbicidal effect (weed suppression rate), Crabgrass",crabgrass [15],90%
same,"herbicidal effect (weed suppression rate), Amaranthus viridis",Amaranthus viridis [16],90%
